Source: PubChem BioAssay AID328 (DTP/NCI, 2004)
Values joined by “and” are separate entries in the source; they are usually repeats but may differ in a detail not shown here. Identical values can stand only once. Toxic doses and inconclusive results are not listed. Rule for the calls: active = survival T/C of 150% or more; inactive = T/C below 125% in these data.

System: BDF1 mice, P388 leukemia ip, median survival T/C
Experiment: NCI In Vivo Anticancer Drug Screen. Data for tumor model P388 Leukemia (intraperitoneal) in B6D2F1 (BDF1) mice
Settings: endpoint: median survival time, higher = longer survival
How it was run: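 Vehicle-dosed animals serve as the reference; survival of compound-dosed, tumour-implanted mice is divided by it.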

[1] = dose: 50.0 mg/kg/injection, schedule: Q01DX009 (ip), vehicle: saline with Tween-80
[2] = dose: 100.0 mg/kg/injection, schedule: Q01DX009 (ip), vehicle: saline with Tween-80
[3] = dose: 200.0 mg/kg/injection, schedule: Q01DX009 (ip), vehicle: saline with Tween-80
[4] = dose: 100.0 mg/kg/injection, schedule: Q01DX009 (ip), vehicle: Klucel (hydroxypropylcellulose) (HPC)
[5] = dose: 200.0 mg/kg/injection, schedule: Q01DX009 (ip), vehicle: Klucel (hydroxypropylcellulose) (HPC)
[6] = dose: 400.0 mg/kg/injection, schedule: Q01DX009 (ip), vehicle: Klucel (hydroxypropylcellulose) (HPC)
[7] = dose: 25.0 mg/kg/injection, schedule: Q04DX003 (ip), vehicle: saline with Tween-80
[8] = dose: 50.0 mg/kg/injection, schedule: Q04DX003 (ip), vehicle: saline with Tween-80
[9] = dose: 100.0 mg/kg/injection, schedule: Q04DX003 (ip), vehicle: saline
[10] = dose: 200.0 mg/kg/injection, schedule: Q04DX003 (ip), vehicle: saline
[11] = dose: 400.0 mg/kg/injection, schedule: Q04DX003 (ip), vehicle: saline

Measured: T/C

CCN(CC)CCCC(C)Nc1ccnc2cc(Cl)cnc12 (stereo not drawn) (tested in a mixture with another compound)
inactive: [1] 107 % of control | [2] 114 % of control | [3] 98 % of control

CC(C)(C)c1ccc(C(c2ccc(C(C)(C)C)cc2)C(Cl)Cl)cc1
inactive: dose: 100.0 mg/kg/injection, schedule: Q04DX003 (ip), vehicle: Klucel (hydroxypropylcellulose) (HPC) 91 % of control | dose: 200.0 mg/kg/injection, schedule: Q04DX003 (ip), vehicle: Klucel (hydroxypropylcellulose) (HPC) 91 % of control | dose: 400.0 mg/kg/injection, schedule: Q04DX003 (ip), vehicle: Klucel (hydroxypropylcellulose) (HPC) 95 % of control

CC1C/C=C2\CSC(NC(=O)/C3=C\N(C/C=C/C=C/C(O)CC(O)CC(=O)N3)C2=O)C(=O)O1 (stereo not drawn)
inactive: [4] 91 % of control | [5] 100 % of control | [6] 91 % of control

CCOC(=O)Cc1csc(=NC(=O)c2ccccc2)n1N
inactive: [1] 108 % of control | [2] 115 % of control | [3] 101 % of control

C[C@]12CCC(=O)C=C1CC[C@@H]1[C@@H]2[C@@H](O)C[C@@]2(C)[C@H]1CC[C@]2(O)C(=O)COC(=O)CCC(=O)O
inactive: dose: 50.0 mg/kg/injection, schedule: Q01DX009 (sc), vehicle: steriod suspending solution 111 % of control | dose: 100.0 mg/kg/injection, schedule: Q01DX009 (sc), vehicle: steriod suspending solution 111 % of control | dose: 100.0 mg/kg/injection, schedule: Q04DX003 (sc), vehicle: steriod suspending solution 100 % of control | dose: 200.0 mg/kg/injection, schedule: Q01DX009 (sc), vehicle: steriod suspending solution 116 % of control | dose: 200.0 mg/kg/injection, schedule: Q04DX003 (sc), vehicle: steriod suspending solution 104 % of control | dose: 400.0 mg/kg/injection, schedule: Q01DX009 (sc), vehicle: steriod suspending solution 111 % of control | dose: 400.0 mg/kg/injection, schedule: Q04DX003 (sc), vehicle: steriod suspending solution 100 % of control

C/C=C/C(OCC)OCC
inactive: dose: 6.25 mg/kg/injection, schedule: Q04DX003 (ip), vehicle: water 95 % of control | dose: 12.5 mg/kg/injection, schedule: Q01DX009 (ip), vehicle: water 105 % of control | dose: 12.5 mg/kg/injection, schedule: Q04DX003 (ip), vehicle: water 91 % of control | dose: 25.0 mg/kg/injection, schedule: Q01DX009 (ip), vehicle: water 91 % of control | dose: 25.0 mg/kg/injection, schedule: Q04DX003 (ip), vehicle: water 92 % of control | dose: 50.0 mg/kg/injection, schedule: Q01DX009 (ip), vehicle: water 100 % of control | dose: 50.0 mg/kg/injection, schedule: Q04DX003 (ip), vehicle: water 105 % of control | dose: 100.0 mg/kg/injection, schedule: Q01DX009 (ip), vehicle: water 98 % of control | dose: 100.0 mg/kg/injection, schedule: Q04DX003 (ip), vehicle: water 113 % of control | dose: 200.0 mg/kg/injection, schedule: Q01DX009 (ip), vehicle: water 109 % of control | dose: 200.0 mg/kg/injection, schedule: Q04DX003 (ip), vehicle: water 111 % of control and 113 % of control | dose: 300.0 mg/kg/injection, schedule: Q04DX003 (ip), vehicle: water 111 % of control

CCOC(=O)Sc1ncnc2nc[nH]c12
inactive: [2] 109 % of control | [3] 90 % of control

N=C1CCCC1C(=S)SCCC(N)=O (stereo not drawn)
inactive: [1] 99 % of control | [2] 99 % of control | [3] 94 % of control

C=C1C(=O)O[C@@H]2CC(CO)=C([C@@H](C)CCCO)[C@@H](OC(=O)/C(C)=C\C)[C@H]12
inactive: dose: 2.0 mg/kg/injection, schedule: Q01DX009 (ip), vehicle: saline + alcohol 123 % of control | dose: 4.0 mg/kg/injection, schedule: Q01DX009 (ip), vehicle: saline + alcohol 104 % of control | dose: 8.0 mg/kg/injection, schedule: Q01DX009 (ip), vehicle: saline + alcohol 123 % of control | dose: 16.0 mg/kg/injection, schedule: Q01DX009 (ip), vehicle: saline + alcohol 114 % of control

CC(=O)OCC(=O)[C@@]1(O)CC[C@H]2[C@@H]3CCC4=CC(=O)[C@H](C)C[C@]4(C)[C@@]3(F)[C@@H](O)C[C@@]21C
inactive: dose: 6.25 mg/kg/injection, schedule: Q01DX009 (ip), vehicle: Klucel (hydroxypropylcellulose) (HPC) 109 % of control | dose: 12.5 mg/kg/injection, schedule: Q01DX009 (ip), vehicle: Klucel (hydroxypropylcellulose) (HPC) 109 % of control | dose: 25.0 mg/kg/injection, schedule: Q01DX009 (ip), vehicle: Klucel (hydroxypropylcellulose) (HPC) 90 % of control | dose: 254.0 mg/kg/injection, schedule: Q01DX001 (ip), vehicle: Klucel (hydroxypropylcellulose) (HPC) 100 % of control | dose: 385.0 mg/kg/injection, schedule: Q01DX001 (ip), vehicle: Klucel (hydroxypropylcellulose) (HPC) 91 % of control

O=C1OC(N2Cc3ccccc3C2=O)c2ccccc21 (stereo not drawn)
inactive: [1] 100 % of control | [2] 100 % of control | [3] 94 % of control

Nc1ccc(C(=O)CC(C(=O)O)c2ccccc2)cc1 (stereo not drawn)
inactive: dose: 100.0 mg/kg/injection, schedule: Q04DX002 (ip), vehicle: saline with Tween-80 88 % of control | dose: 200.0 mg/kg/injection, schedule: Q04DX002 (ip), vehicle: saline with Tween-80 90 % of control | dose: 400.0 mg/kg/injection, schedule: Q04DX002 (ip), vehicle: saline with Tween-80 99 % of control

Cc1ccc(S)cc1
inactive: dose: 12.5 mg/kg/injection, schedule: Q01DX009 (ip), vehicle: saline with Tween-80 104 % of control | dose: 25.0 mg/kg/injection, schedule: Q01DX009 (ip), vehicle: saline with Tween-80 95 % of control | [7] 100 % of control | [1] 108 % of control | [8] 91 % of control

O=C(Nc1ccc(C2=NCCCN2)cc1)c1ccc(NC(=O)c2ccc(C3=NCCCN3)cc2)cc1
active: dose: 13.2 mg/kg/injection, schedule: Q04DX003 (ip), vehicle: saline with Tween-80 160 % of control and 168 % of control | dose: 20.0 mg/kg/injection, schedule: Q04DX003 (ip), vehicle: saline with Tween-80 181 % of control and 220 % of control | dose: 30.0 mg/kg/injection, schedule: Q04DX003 (ip), vehicle: saline with Tween-80 263 % of control and 300 % of control

Nc1n[nH]c(=S)n1-c1ccccc1
inactive: dose: 100.0 mg/kg/injection, schedule: Q01DX001 (ip), vehicle: Klucel (hydroxypropylcellulose) (HPC) 104 % of control | [4] 95 % of control | dose: 200.0 mg/kg/injection, schedule: Q01DX001 (ip), vehicle: Klucel (hydroxypropylcellulose) (HPC) 95 % of control | [5] 91 % of control | dose: 400.0 mg/kg/injection, schedule: Q01DX001 (ip), vehicle: Klucel (hydroxypropylcellulose) (HPC) 90 % of control | [6] 104 % of control

CC(C)(C)OC(=O)NO
inactive: dose: 100.0 mg/kg/injection, schedule: Q01DX009 (ip), vehicle: saline 105 % of control | [9] 91 % of control | dose: 200.0 mg/kg/injection, schedule: Q01DX009 (ip), vehicle: saline 95 % of control | [10] 95 % of control | dose: 400.0 mg/kg/injection, schedule: Q01DX009 (ip), vehicle: saline 90 % of control | [11] 95 % of control

CCOC(=O)C(C(=O)OCC)C(C)C
inactive: [9] 105 % of control | [10] 105 % of control | [11] 115 % of control

COc1ccc(C[n+]2cc([O-])on2)cc1
inactive: [7] 100 % of control | [8] 100 % of control | dose: 100.0 mg/kg/injection, schedule: Q04DX003 (ip), vehicle: saline with Tween-80 109 % of control and 113 % of control | dose: 200.0 mg/kg/injection, schedule: Q04DX003 (ip), vehicle: saline with Tween-80 113 % of control
